Reference: patent US9616062B2, “Cyclin dependent kinase inhibitors and methods of use” (priority 2009, dated 2017)

Tests used:
[1] = system: RB-deficient small cell lung cancer cell lines (H69, H82, H209, H345); test: SCLC cell proliferation, WST-1, RB-deficient lines; format: cell-based; settings: 100 nM, all four RB-deficient cell lines
Protocol: FIG. 8: CDK4/6 inhibition potentiates proliferation of Rb deficient cells. […] Cell proliferation was assessed using WST-1 reagent. Each data point represents the mean of four replicates +/−SEM. CDK4/6 inhibition increases cell proliferation of RB-deficient cell lines.
Primary normal human renal proximal epithelial cells (American Type Culture Collection (ATCC), Manassas, Va., United States of America) were cultured in renal epithelial cell basal media supplemented with renal epithelial cell growth kit according to the manufacturer's recommendations. […] For the γH2AX assay, cells were fixed, permeabilized, and stained with anti-γH2AX as per γH2AX Flow Kit (Millipore, Billerica, Mass., United States of America). γH2AX levels were assessed by flow cytometry. Cell proliferation was assessed by seeding 1×10^3 cells per well in a 96-well tissue culture plate in 100 μL of growth medium. […] At the end of the recovery period, cell number was quantified using CellTiter-Glo® (Promega, Fitchburg, Wis., United States of America) or WST-1 reagent (TaKaRa Bio USA, Madison, Wis., United States of America). Cellular cytotoxicity was assessed using the TOXILIGHT™ Bioassay kit (Lonza, Basel, Switzerland) which measures cytolysis by quantifying the release of Adenylate Kinase into the culture media. […] 100 μL of TOXILIGHT™ reagent is added and incubated for 5 minutes and read in a luminometer at 1 second/well. […]

[2] = system: primary human renal proximal tubule epithelial cells; test: γH2AX flow cytometry assay of etoposide-induced DNA damage; format: cell-based; settings: 0, 100 nM, 300 nM or 1 μM for 16 h, then 2.5 μM etoposide for 8 h
Protocol: Cells were pretreated for 16 hours with PD0332991 followed by 8 hours with etoposide (Etop). Cells were collected, fixed and stained with anti-γH2AX FITC and analyzed by flow cytometry. Data was analyzed using FlowJo (Treestar, Inc., Ashland, Oreg., United States of America). The % γH2AX positive cells are shown in the accompanying graph.
Primary normal human renal proximal epithelial cells (American Type Culture Collection (ATCC), Manassas, Va., United States of America) were cultured in renal epithelial cell basal media supplemented with renal epithelial cell growth kit according to the manufacturer's recommendations. […] For the γH2AX assay, cells were fixed, permeabilized, and stained with anti-γH2AX as per γH2AX Flow Kit (Millipore, Billerica, Mass., United States of America). γH2AX levels were assessed by flow cytometry. Cell proliferation was assessed by seeding 1×10^3 cells per well in a 96-well tissue culture plate in 100 μL of growth medium. […] At the end of the recovery period, cell number was quantified using CellTiter-Glo® (Promega, Fitchburg, Wis., United States of America) or WST-1 reagent (TaKaRa Bio USA, Madison, Wis., United States of America). Cellular cytotoxicity was assessed using the TOXILIGHT™ Bioassay kit (Lonza, Basel, Switzerland) which measures cytolysis by quantifying the release of Adenylate Kinase into the culture media. […]

[3] = system: germinal center formation; test: Germinal center formation in mice (Ki67 immunohistochemistry); format: in vivo, mouse; settings: 150 mg/kg by oral gavage
Protocol: Mice were treated with PD0332991 (150 mg/kg by oral gavage). Germinal center formation was assessed by Ki67 immunohistochemistry.
(§1) Acute, pharmacologic inhibition of CDK4/6 suppresses lymphocyte proliferation with the most pronounced effect on memory T cell homeostatic proliferation and germinal center formation in mice. To determine whether inhibiting CDK4/6 affects memory cell generation and maintenance, mice were treated with selective CDK4/6 inhibitors, PD 0332991 or an unrelated selective CDK4/6 inhibitor, 2BrIC. 2BrIC was synthesized by OTAVA Chemicals (Kiev, Ukraine) and can be prepared according to methods described in Zhu et al., J. Med. Chem. 46, 2027-2030 (2003).
Cohorts of wild type mice were treated with vehicle or a CDK4/6 inhibitor as in FIG. 11. […] Unstimulated mice were treated for 24 hours with PD0332991 and homeostatic B cell proliferation measured by Ki67 staining after appropriate sorting. Similar results were obtained using BrdU incorporation to measure splenic B cell proliferation. Similar experiments were undertaken in human cells with B cell receptor stimulation as described in FIG. 12.

[4] = system: murine memory and naive T cells; test: Homeostatic T cell proliferation in mice (BrdU incorporation, Ki67); format: in vivo, mouse
Protocol: FIG. 11A: Acute inhibition of CDK4/6 selectively suppresses memory T cell homeostatic proliferation in mice. Mice were treated with PD0332991 (150 mg/kg by oral gavage). Proliferation of T-cells were assessed using BrdU and flow cytometry.
Animals were treated with CDK4/6 inhibitor (PD0332991, open bars) or vehicle (shaded bars) for 24 hours and euthanized. Splenocytes were isolated and stained for B and T cell markers. After gating on appropriate populations, Ki67 staining was performed as an indicator of proliferation and S-phase. Error bars show +/−SEM.
as §1

CC(=O)c1c(C)c2cnc(Nc3ccc(N4CCNCC4)cn3)nc2n(C2CCCC2)c1=O [PD0332991, 6-acetyl-8-cyclopentyl-5-methyl-2-(5-piperazin-1-yl-pyridin-2-ylamino)-8H-pyrido-[2,3-d]-pyrimidin-7-one]
cell proliferation (WST-1) vs DMSO [1]: increased
etoposide-induced DNA damage (% γH2AX positive cells) [2]: abrogates etoposide-induced DNA damage
germinal center formation (Ki67) [3]: selectively suppresses germinal center formation
in vivo BrdU incorporation of CD4+ and CD8+ murine T cells ([4]; 150 mg/kg by oral gavage): greatest effects seen in the CD44+CD25+ memory cells
homeostatic proliferation of memory vs naive T cells (BrdU incorporation, Ki67 expression) ([4]; murine cells, acute inhibition): more significant decrease in homeostatic proliferation of memory T cells than naive T cells
